Laboratory results as given in PubChem BioAssay AID1963830 (Molecular Pharmacology Branch, DTP, NCI, 2024).
pIC50: −log10 of the molar value.

Test system: 922993-354-T-J3-PDC complex spheroid viability
Experiment: Anticancer human tumor 922993-354-T-J3-PDC patient-derived endometrial carcinoma cell line growth inhibition [POLQ]
Settings: for pIC50: curve of first compound; for viability, T/C: stronger effect = lower value
Protocol: Multicellular complex tumor spheroid response to Polymerase (POL) inhibitors (novobiocin, ART-558, RP6685) in combination with a variety of drugs and investigational agents in selected tumor cell lines
The POL inhibitors (novobiocin, ART-558, and RP6685) were evaluated both individually and in combination with standard of care and investigational anticancer small molecules within a complex spheroid model of solid tumors. . Complex spheroids include a stromal component modeled by human endothelial cells (HUVEC) and fibroblasts modeled by human mesenchymal stem cells (MSCs). The concentration ranges selected for each drug and investigational agent were based upon clinically achievable concentrations if the clinical Cmax of the agent was known.
Compounds. The drugs and investigational agents: novobiocin (NSC847541), ART-558 (NSC835418), RP-6685 (NSC848927), peposertib (NSC802822), ceralasertib (NSC780249), elimusertib (NSC800525), camonsertib (NSC841442), AZD-1390 (NSC803789), olaparib (NSC753686), talazoparib (NSC767125), rucaparib (NSC756644), sotorasib (NSC818433), MRTX-1133 (NSC836407), SN-38 (NSC673596), topotecan (NSC609699), epotoside (NSC141540), doxorubicin (NSC123127), gemcitabine (NSC613327), 5-fluorouracil (NSC19893), paclitaxel (NSC125973), vemurafenib (NSC761431), MSA-2 (NSC828583), SN-011 (NSC837082), adavosertib (NSC754352), prexasertib (NSC758257), carboplatin (NSC241240) and oxaliplatin (NSC266046), were obtained from the National Cancer Institute (NCI) Developmental Therapeutics Program Chemical Repository (21). The FDA-approved anticancer drug set is available from the Developmental Therapeutics Program at https://dtp.cancer.gov/organization/dscb/obtaining/. […] The stock solutions were prepared in dimethyl sulfoxide (DMSO, Sigma-Aldrich, St. Louis, MO, cat. D2650), except for the platinum compounds which were prepared in saline (Quality Biological, Gaithersburg, MD, cat. 114-055-101), at 800-fold the tested concentration and stored at -70 degrees C prior to their use. All drugs and investigational agents were tested over a range starting from a high concentration at or near the clinical Cmax and decreasing in half-log increments. If the clinical Cmax for an agent had not been determined, the highest concentration tested was 10 microM, except for SN-38, which was tested at a high concentration of 1 microM.
Cell Culture. All cells were maintained in an incubator at 37 degrees C and 5% CO2 with 95% humidity. The PDC lines were cultured according to standard operating procedures established by the NCI PDMR (https://pdmr.cancer.gov). Table 3 of the manuscript, lists the cell lines along with the number of the three cell types plated to form the mct-spheroids and media for tumor cell growth. After thawing, all PDC lines, except 997537-175-T-J1-PDC and 415267-285-R-J2-PDC, were cultured in Matrigel-coated flasks prepared with a working solution of 1X Ham's F-12 nutrient mix, without supplementation (Thermo Fisher Scientific, cat. 11765054), 100 U/mL penicillin-streptomycin (Thermo Fisher Scientific, cat. 15140122), and 2.5% Matrigel (Corning Inc., Corning, NY, cat. 354248) for the first three passages. The two PDC lines 997537-175-T-J1-PDC and 415267-285-R-J2-PDC were cultured on uncoated flasks. The 857933-349-R-J2-PDC line was cultured in 6C/Colon 1B media containing advanced DMEM/F-12 (Thermo Fisher Scientific, cat. 12634028), 10 mM HEPES (Thermo Fisher Scientific, cat. 15630080), 1X GlutaMAX supplement (Thermo Fisher Scientific, cat. 35050061), 0.1 mg/mL primocin (InvivoGen, San Diego, CA, cat. ant-pm-2), 10% defined fetal bovine serum, heat inactivated (HyClone Laboratories Inc., Logan, UT, cat. SH30070.03HI), 50% L-WRN conditioned media (ATCC, cat. CRL-3276), 1.25 mM N-Acetyl-L-cysteine (Sigma-Aldrich, cat. A9165), 10 mM nicotinamide (Sigma-Aldrich, cat. N0636), 1X B-27 supplement (Thermo Fisher Scientific, cat. 17504044), 1X N-2 supplement (Thermo Fisher Scientific, cat. […]

[1] = second compound 0.0316 µM, first compound 0.0316 µM
[2] = second compound 0.0316 µM, first compound 0.1 µM
[3] = second compound 0.0316 µM, first compound 0.316 µM
[4] = second compound 0.0316 µM, first compound 1 µM
[5] = second compound 0.0316 µM, first compound 3.16 µM
[6] = second compound 0.0316 µM, first compound 10 µM
[7] = second compound 0.1 µM, first compound 0.0316 µM
[8] = second compound 0.1 µM, first compound 0.1 µM
[9] = second compound 0.1 µM, first compound 0.316 µM
[10] = second compound 0.1 µM, first compound 1 µM
[11] = second compound 0.1 µM, first compound 3.16 µM
[12] = second compound 0.1 µM, first compound 10 µM
[13] = second compound 0.316 µM, first compound 0.0316 µM
[14] = second compound 0.316 µM, first compound 0.1 µM
[15] = second compound 0.316 µM, first compound 0.316 µM
[16] = second compound 0.316 µM, first compound 1 µM
[17] = second compound 0.316 µM, first compound 3.16 µM
[18] = second compound 0.316 µM, first compound 10 µM
[19] = second compound 1 µM, first compound 0.0316 µM
[20] = second compound 1 µM, first compound 0.1 µM
[21] = second compound 1 µM, first compound 0.316 µM
[22] = second compound 1 µM, first compound 1 µM
[23] = second compound 1 µM, first compound 3.16 µM
[24] = second compound 1 µM, first compound 10 µM
[25] = second compound 3.16 µM, first compound 0.0316 µM
[26] = second compound 3.16 µM, first compound 0.1 µM
[27] = second compound 3.16 µM, first compound 0.316 µM
[28] = second compound 3.16 µM, first compound 1 µM
[29] = second compound 3.16 µM, first compound 3.16 µM
[30] = second compound 3.16 µM, first compound 10 µM
[31] = second compound 10 µM, first compound 0.0316 µM
[32] = second compound 10 µM, first compound 0.1 µM
[33] = second compound 10 µM, first compound 0.316 µM
[34] = second compound 10 µM, first compound 1 µM
[35] = second compound 10 µM, first compound 3.16 µM
[36] = second compound 10 µM, first compound 10 µM
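Further: spheroids exposed to the agents for one week.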
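Wherever viability, T/C is given: 100% = DMSO vehicle control wells.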

## O=C(Nc1ccc(O)c(NS(=O)(=O)c2ccc(F)cc2)c1)c1ccc(-c2ccccc2)cc1 + Cc1cccc(N(C)C(=O)C2C(O)CCN2c2nc(C)cc(C(F)(F)F)c2C#N)c1
Second compound 0.0316 µM
  pIC50: < 5.00
Second compound 0.1 µM
  pIC50: < 5.00
Second compound 0.316 µM
  pIC50: < 5.00
Second compound 1 µM
  pIC50: < 5.00
Second compound 3.16 µM
  pIC50: < 5.00
Second compound 10 µM
  pIC50: < 5.00
[1]
  viability, T/C: 106%
[2]
  viability, T/C: 104%
[3]
  viability, T/C: 99.2%
[4]
  viability, T/C: 101%
[5]
  viability, T/C: 104%
[6]
  viability, T/C: 105%
[7]
  viability, T/C: 104%
[8]
  viability, T/C: 101%
[9]
  viability, T/C: 106%
[10]
  viability, T/C: 100%
[11]
  viability, T/C: 104%
[12]
  viability, T/C: 104%
[13]
  viability, T/C: 98.8%
[14]
  viability, T/C: 104%
[15]
  viability, T/C: 97.2%
[16]
  viability, T/C: 98.6%
[17]
  viability, T/C: 104%
[18]
  viability, T/C: 103%
[19]
  viability, T/C: 99.6%
[20]
  viability, T/C: 102%
[21]
  viability, T/C: 101%
[22]
  viability, T/C: 102%
[23]
  viability, T/C: 103%
[24]
  viability, T/C: 104%
[25]
  viability, T/C: 101%
[26]
  viability, T/C: 101%
[27]
  viability, T/C: 97.5%
[28]
  viability, T/C: 99.6%
[29]
  viability, T/C: 94.8%
[30]
  viability, T/C: 102%
[31]
  viability, T/C: 98.1%
[32]
  viability, T/C: 99.9%
[33]
  viability, T/C: 102%
[34]
  viability, T/C: 93.7%
[35]
  viability, T/C: 94%
[36]
  viability, T/C: 97%

## O=C(c1cc(Cc2n[nH]c(=O)c3ccccc23)ccc1F)N1CCN(C(=O)C2CC2)CC1 + Cc1cccc(N(C)C(=O)C2C(O)CCN2c2nc(C)cc(C(F)(F)F)c2C#N)c1
Second compound 0.0316 µM
  pIC50: < 5.00
Second compound 0.1 µM
  pIC50: < 5.00
Second compound 0.316 µM
  pIC50: < 5.00
Second compound 1 µM
  pIC50: < 5.00
Second compound 3.16 µM
  pIC50: < 5.00
Second compound 10 µM
  pIC50: < 5.00
[1]
  viability, T/C: 104%
[2]
  viability, T/C: 103%
[3]
  viability, T/C: 101%
[4]
  viability, T/C: 113%
[5]
  viability, T/C: 99.2%
[6]
  viability, T/C: 92.4%
[7]
  viability, T/C: 111%
[8]
  viability, T/C: 103%
[9]
  viability, T/C: 111%
[10]
  viability, T/C: 102%
[11]
  viability, T/C: 103%
[12]
  viability, T/C: 109%
[13]
  viability, T/C: 113%
[14]
  viability, T/C: 108%
[15]
  viability, T/C: 104%
[16]
  viability, T/C: 112%
[17]
  viability, T/C: 92.9%
[18]
  viability, T/C: 103%
[19]
  viability, T/C: 96.4%
[20]
  viability, T/C: 108%
[21]
  viability, T/C: 106%
[22]
  viability, T/C: 107%
[23]
  viability, T/C: 99.1%
[24]
  viability, T/C: 109%
[25]
  viability, T/C: 98.3%
[26]
  viability, T/C: 107%
[27]
  viability, T/C: 95.3%
[28]
  viability, T/C: 94.7%
[29]
  viability, T/C: 109%
[30]
  viability, T/C: 106%
[31]
  viability, T/C: 100%
[32]
  viability, T/C: 97.7%
[33]
  viability, T/C: 112%
[34]
  viability, T/C: 104%
[35]
  viability, T/C: 104%
[36]
  viability, T/C: 103%
